1 compound from patent US20240366587A1, “USES OF A SOMATOSTATIN MODULATOR FOR THE TREATMENT OF DISEASE” (Crinetics Pharmaceuticals, Inc., priority 2021, published 2024) can be followed below.

Assay type in all cases: in vivo, human
Series [1] relates to subjects with acromegaly. Briefly: ACROBAT Advance long-term study: safety and tolerability. The conditions noted are these: acromegaly patients; including in combination with cabergoline. The protocol: ACROBAT Advance is an ongoing open-label, long-term (5 year) safety and efficacy study of paltusotine in patients rolling-over from the ACROBAT Evolve & Edge studies.
Eligible patients completing ACROBAT Edge and Evolve entered ACROBAT Advance either immediately on completion of a washout period in the parent study or after a gap during which they reverted to their routine standard of care treatment. Paltusotine therapy: initiated at 10 mg/day and titrated up to maximum dose of 40 mg/day based on IGF-1 and tolerability. Patients were administered 10 mg HMG capsules. Combination therapy was allowed for patients not reaching therapeutic targets with 40 mg/day of paltusotine monotherapy.

Series [2] has as its system subjects with acromegaly. Briefly: ACROBAT Edge: patient reported outcomes (Acromegaly Symptom Diary, PGI-I). The protocol: Patients recorded daily acromegaly symptoms using a nine-item Acromegaly Symptom Diary (ASD). The ASD is a 9-item patient-reported measure of symptoms associated with acromegaly, including headache, joint pain, sweating, fatigue, leg weakness, swelling, numbness/tingling, sleep difficulties, and short-term memory difficulties. Symptoms experienced in the previous 24 hours are rated on an 11-point scale, from 0 (no symptom) to 10 (worst symptom). Patient Global Impression of Improvement (PGI-I) scale was completed at week 13 (end of treatment).

In another series the test system is growth hormone (GH). As to the kind of experiment: ACROBAT Edge Phase 2 study in acromegaly: GH levels. The protocol: (§1) An open label exploratory study designed to evaluate the safety, efficacy, and pharmacokinetics of Compound A (also known as paltusotine) in subjects with acromegaly that are treated with somatostatin analogue (SSA) based treatment regimens.
(§2) 5 mg or 10 mg HMG capsule formulation. Multiple capsules were swallowed with water depending on dose specified for a given period/cohort. Enrolled patients began treatment with oral paltusotine 10 mg/day. The dose was up-titrated in a double-blind manner in 10-mg increments to a maximum 40 mg/day at weeks 4, 7 and 10 according to IGF-1 levels measured at weeks 2, 5, and 8, respectively. Up-titrations were performed if the investigator confirmed that the patient was tolerating the current dose and the unblinded central IGF-1 reader determined that IGF-1 was >0.9×ULN at week 2 and 5 or >1.0×ULN at week 8.

Series [3] relates to insulin-like growth factor-1 (IGF-1). As to the kind of experiment: ACROBAT Edge Phase 2 study in acromegaly: IGF-1 levels. The protocol:
as §1, §2
Primary Outcome Measures: Change from baseline (mean of Screening values) in insulin-like growth factor-1 (IGF-1) level [Time Frame: 13 Weeks].
The primary hypothesis was that the group would show no change in the median IGF-1 at Week 13 versus baseline.

Series [4] is described as follows: Phase 1 multi-cohort single dose study: relative bioavailability and PK of SDD tablets vs HMG capsules. The protocol:
The study was conducted in up to 3 cohorts, each with a specific primary objective: • Cohort 1: To characterize performance of 10 mg tablets prepared by spray-dried dispersion (SDD) of Compound A-HCl salt. • Cohort 2: To evaluate the relative bioavailability of 10 mg SDD tablets compared to the Compound A-HCl hot melt granulation (HMG) formulation, 10 mg capsules. To determine the effect of timing of food administration on pharmacokinetics of low dose of the 10 mg SDD tablets. • Cohort 3: To determine the effect of timing of food administration on pharmacokinetics of SDD tablets and dose proportionality in doses higher than 20 mg. To determine the optimal dosing regimen that results in adequate systemic exposure with short post-dose fasting duration. • Cohort 4: To determine the effect of timing of food administration on pharmacokinetics of SDD tablets in doses higher than 20 mg. To determine the optimal dosing regimen of paltusotine that results in high systemic exposure with low post-dose fasting duration • Cohort 5: To determine the effect of the proton-pump inhibitor (PPI), lansoprazole, on the pharmacokinetics of a 60 mg dose of SDD tablets. To determine the effect of a low-fat meal on the pharmacokinetics of a 60 mg dose of SDD tablets.
The SDD tablets were evaluated. Up to twelve (12) healthy male and female subjects were enrolled in each cohort. Cohort 1 consisted of 4 periods: In Period 1, subjects were administered a proton-pump inhibitor (lansoprazole, 15 mg BID for 3 days (from Day −3), taken orally at least 30 min prior to a meal, once in the morning and once in the evening). On the fourth day (Day 1 of study), fasted subjects will take the last dose of lansoprazole (15 mg) 60 min prior to 20 mg Compound A (2×10 mg of the SDD tablets). In Period 2, fasted subjects were administered 20 mg Compound A (2×10 mg of the SDD tablets). In Period 3, fasted subjects were administered 20 mg Compound A (2×10 mg of the SDD tablets) with a high-fat, high-calorie meal. In Period 4, fasted subjects will take up to 80 mg Compound A (up to 8×10 mg of the SDD tablets). […]

As to `N#Cc1cccc(-c2ccc3ncc(-c4cc(F)cc(F)c4)c(N4CCC(N)CC4)c3c2)c1O` [Compound A, 3-(4-(4-amino-piperidin-1-yl)-3-(3,5-difluoro-phenyl)-quinolin-6-yl)-2-hydroxy-benzonitrile], in the series on subjects with acromegaly [1], the “tolerability and safety profile” value was “well tolerated with a safety profile similar to that of SRLs”. Besides, the “change in total ASD score from Baseline to week 13/EoT, median (IQR)” value in the series on subjects with acromegaly [2] (n=18, score range 0-70) was −0.43 (−5.0, 2.4). Besides, in the series on subjects with acromegaly [2] (week 13/EoT), the “patients "minimally improved" or "no change" on PGI-I” value is 26 (55.3%) patients and the “patients reporting worsening on PGI-I” value was “No patients reported any degree of worsening”. In the series on subjects with acromegaly [2] (week 13/EoT, compared to before the study, while treated with depot SRLs), the “patients "very much improved" or "much improved" on PGI-I” value is recorded as 11 (23.4%) patients. In addition, the “change of GH levels from baseline after 13 weeks of treatment” value in the series on growth hormone (GH) (acromegaly patients previously treated with injected SRL depots) is “did not significantly change from baseline levels”. Further, the “GH after withdrawal of treatment” value in the series with growth hormone (GH) (acromegaly patients, washout) is “Rise in GH after withdrawal”. Further, the “change of IGF-1 levels from baseline after 13 weeks of treatment” value in series [3] (acromegaly patients previously treated with injected SRL depots, 10-40 mg/day) is reported as “did not significantly change from baseline”. For the same compound, the “IGF-1 after withdrawal of treatment” value in series [3] (acromegaly patients, washout) is recorded as “Rise in IGF-1 after withdrawal (within 2 weeks)”. Moreover, in series [4] (Cohort 5, 60 mg SDD tablets), the “reduction of exposures (Cmax and AUC) when administered with PPI” value was around 40%; the “reduction of exposures (Cmax and AUC) when administered with low-fat meal” value is recorded as around 60%. Also, the “reduction of exposures when administered with high-fat meal” value in series [4] (SDD tablets) is on record as above 80%.
